From ChEMBL document CHEMBL3885861, “Open TG-GATES”

Species on record: Rattus norvegicus
Test: Open TG-GATES - Regimen: Single
Type: toxicity, organism-based, Sprague-Dawley
Design: regimen Single, gender Male, age 6 weeks
Conditions: in vivo, po, 500 mg/kg, route gavage, dose level High; for APTT / Bas / Eos / Fbg / Hb / Ht / Lym / MCH / MCHC / MCV / Mono / Neu / PT / Plat / RBC / Ret / WBC: tissue Blood; for KIDNEY_L / KIDNEY_R / KIDNEY_TOTAL: tissue Kidney; for LIVER: tissue Liver; for A/G / ALP / ALT / AST / BUN / CRE / Ca / Cl / DBIL / GLC / IP / K / LDH / Na / PL / RALB / TBIL / TC / TG / TP / gamma-GTP: tissue Plasma

CN1C(=O)CCS(=O)(=O)C1c1ccc(Cl)cc1 (configuration not stated) [CHLORMEZANONE]
TERMINAL_BW (3 h): 225.7 g | APTT (3 h): 17.2 s | Bas (3 h): 0% | Eos (3 h): 1% | Fbg (3 h): 308.4 mg/dL | Hb (3 h): 13.4 g/dL | Ht (3 h): 40.2% | Lym (3 h): 72.8% | MCH (3 h): 21.9 pg | MCHC (3 h): 33.4% | MCV (3 h): 65.4 fL | Mono (3 h): 3.8% | Neu (3 h): 21.8% | PT (3 h): 13.2 s | Plat (3 h): 113.8 x10_4/uL | RBC (3 h): 614.4 x10_4/ul | Ret (3 h): 8.6% | WBC (3 h): 42.6 x10_2/uL | KIDNEY_L (3 h): 1 g | KIDNEY_R (3 h): 1 g | KIDNEY_TOTAL (3 h): 2 g | LIVER (3 h): 9.8 g | A/G (3 h): 0.9 | ALP (3 h): 1556.6 IU/L | ALT (3 h): 41.2 IU/L | AST (3 h): 63.6 IU/L | BUN (3 h): 9.6 mg/dL | CRE (3 h): 0.1 mg/dL | Ca (3 h): 10.8 mg/dL | Cl (3 h): 102 meq/L | DBIL (3 h): 0.012 mg/dL | GLC (3 h): 212.4 mg/dL | IP (3 h): 10.3 mg/dL | K (3 h): 3.9 meq/L | LDH (3 h): 54.2 IU/L | Na (3 h): 140.8 meq/L | PL (3 h): 145 mg/dL | RALB (3 h): 2.5 g/dL | TBIL (3 h): 0.038 mg/dL | TC (3 h): 76.4 mg/dL | TG (3 h): 63.6 mg/dL | TP (3 h): 5.3 g/dL | gamma-GTP (3 h): 1 IU/L | TERMINAL_BW (6 h): 226.3 g | APTT (6 h): 16.7 s | Bas (6 h): 0% | Eos (6 h): 1% | Fbg (6 h): 340.6 mg/dL | Hb (6 h): 13.2 g/dL | Ht (6 h): 39.2% | Lym (6 h): 72.6% | MCH (6 h): 21.2 pg | MCHC (6 h): 33.8% | MCV (6 h): 62.7 fL | Mono (6 h): 2.6% | Neu (6 h): 23.4% | PT (6 h): 13.6 s | Plat (6 h): 111.4 x10_4/uL | RBC (6 h): 625.4 x10_4/ul | Ret (6 h): 8.1% | WBC (6 h): 28.5 x10_2/uL | KIDNEY_L (6 h): 0.9 g | KIDNEY_R (6 h): 0.9 g | KIDNEY_TOTAL (6 h): 1.9 g | LIVER (6 h): 9.9 g | A/G (6 h): 0.9 | ALP (6 h): 1317.4 IU/L | ALT (6 h): 44 IU/L | AST (6 h): 66.8 IU/L | BUN (6 h): 8 mg/dL | CRE (6 h): 0.1 mg/dL | Ca (6 h): 10.8 mg/dL | Cl (6 h): 101.2 meq/L | DBIL (6 h): 0.006 mg/dL | GLC (6 h): 218.4 mg/dL | IP (6 h): 10.6 mg/dL | K (6 h): 3.6 meq/L | LDH (6 h): 56.4 IU/L | Na (6 h): 139.6 meq/L | PL (6 h): 160 mg/dL | RALB (6 h): 2.5 g/dL | TBIL (6 h): 0.03 mg/dL | TC (6 h): 93.2 mg/dL | TG (6 h): 39.6 mg/dL | TP (6 h): 5.4 g/dL | gamma-GTP (6 h): 1 IU/L | TERMINAL_BW (9 h): 229 g | APTT (9 h): 16.4 s | Bas (9 h): 0% | Eos (9 h): 0.6% | Fbg (9 h): 317.8 mg/dL | Hb (9 h): 13.4 g/dL | Ht (9 h): 39.2% | Lym (9 h): 68.8% | MCH (9 h): 21.9 pg | MCHC (9 h): 34.2% | MCV (9 h): 64 fL | Mono (9 h): 2.8% | Neu (9 h): 27.6% | PT (9 h): 13.6 s | Plat (9 h): 127.7 x10_4/uL | RBC (9 h): 613 x10_4/ul | Ret (9 h): 8.1% | WBC (9 h): 40.7 x10_2/uL | KIDNEY_L (9 h): 1 g | KIDNEY_R (9 h): 1 g | KIDNEY_TOTAL (9 h): 1.9 g | LIVER (9 h): 10.1 g | A/G (9 h): 0.9 | ALP (9 h): 1555.8 IU/L | ALT (9 h): 39.8 IU/L | AST (9 h): 66 IU/L | BUN (9 h): 10 mg/dL | CRE (9 h): 0.1 mg/dL | Ca (9 h): 11 mg/dL | Cl (9 h): 100.4 meq/L | DBIL (9 h): 0.014 mg/dL | GLC (9 h): 255.4 mg/dL | IP (9 h): 10.3 mg/dL | K (9 h): 3.8 meq/L | LDH (9 h): 66.4 IU/L | Na (9 h): 139 meq/L | PL (9 h): 165.8 mg/dL | RALB (9 h): 2.6 g/dL | TBIL (9 h): 0.034 mg/dL | TC (9 h): 90.6 mg/dL | TG (9 h): 89.8 mg/dL | TP (9 h): 5.5 g/dL | gamma-GTP (9 h): 1.2 IU/L | TERMINAL_BW (24 h): 214.2 g | APTT (24 h): 21.3 s | Bas (24 h): 0% | Eos (24 h): 0.6% | Fbg (24 h): 258.6 mg/dL | Hb (24 h): 14.2 g/dL | Ht (24 h): 40.4% | Lym (24 h): 73.4% | MCH (24 h): 21.7 pg | MCHC (24 h): 35.2% | MCV (24 h): 61.9 fL | Mono (24 h): 4% | Neu (24 h): 21.8% | PT (24 h): 14.3 s | Plat (24 h): 121 x10_4/uL | RBC (24 h): 653.6 x10_4/ul | Ret (24 h): 7.3% | WBC (24 h): 73.2 x10_2/uL | KIDNEY_L (24 h): 0.9 g | KIDNEY_R (24 h): 0.9 g | KIDNEY_TOTAL (24 h): 1.9 g | LIVER (24 h): 9.7 g | A/G (24 h): 0.8 | ALP (24 h): 1746 IU/L | ALT (24 h): 46.2 IU/L | AST (24 h): 89.6 IU/L | BUN (24 h): 14.2 mg/dL | CRE (24 h): 0.2 mg/dL | Ca (24 h): 11.2 mg/dL | Cl (24 h): 104.6 meq/L | DBIL (24 h): 0.048 mg/dL | GLC (24 h): 193.2 mg/dL | IP (24 h): 8 mg/dL | K (24 h): 3.9 meq/L | LDH (24 h): 113 IU/L | Na (24 h): 142 meq/L | PL (24 h): 146.2 mg/dL | RALB (24 h): 2.6 g/dL | TBIL (24 h): 0.058 mg/dL | TC (24 h): 69.6 mg/dL | TG (24 h): 239.2 mg/dL | TP (24 h): 5.8 g/dL | gamma-GTP (24 h): 1 IU/L
